The values that follow come from patent US20080221129A1, “New compounds” (priority 2006, published 2008).

The target of this test is T1, stearoyl-CoA desaturase (SCD) (Rattus norvegicus, UniProt P07308).
T1 construct: 0.032 mg/ml rat liver microsomes (total protein content); from tissue
T1 sequence (P07308 1-358): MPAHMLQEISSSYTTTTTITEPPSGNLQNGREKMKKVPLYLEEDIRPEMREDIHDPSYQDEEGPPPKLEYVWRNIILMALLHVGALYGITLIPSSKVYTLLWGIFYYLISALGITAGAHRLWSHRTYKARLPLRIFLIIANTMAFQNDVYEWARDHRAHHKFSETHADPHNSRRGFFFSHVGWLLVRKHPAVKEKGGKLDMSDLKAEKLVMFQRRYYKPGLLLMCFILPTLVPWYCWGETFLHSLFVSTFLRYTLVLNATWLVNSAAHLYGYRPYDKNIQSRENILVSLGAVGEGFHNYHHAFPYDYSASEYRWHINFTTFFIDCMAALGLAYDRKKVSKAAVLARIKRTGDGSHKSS
In words: Tritium release screening assay for inhibition of stearoyl-CoA desaturase activity in rat liver microsomes. The class given is biochemical, rat (Male Sprague-Dawley). Particulars: [3H]-stearoyl-CoA, 20 min pre-incubation, 20 min reaction, 384- or 96-well format. An excerpt:
Another measure of SCD activity was introduced by Talamo and Bloch in 1969 [Talamo & Bloch (1969) Anal. Biochem. 29, 300-304]. This method is based on the quantification of a second product of the desaturase reaction, i.e. the water molecule that is released in the desaturase reaction. The quantification is based on the use of a long chain acyl-CoA substrate, e.g. stearoyl-CoA, that is specifically labeled with tritium in positions 9 and 10 of the carbon chain such that the released water is also tritiated ([^3H]-H2O). The remaining [^3H]-stearoyl-CoA as well as the product [^3H]-oleyl-CoA must then be separated from the solution before the tritiated water content can be measured by means of liquid scintillation. Talamo and Bloch acid precipitated the long chain acyl-CoAs followed by filtration to achieve this separation, but this separation can also be achieved by means of centrifugation instead of filtration [Johnson & Guhr (1971) Lipids 6, 78-84]. An alternative procedure that involves precipitation by ethanol and activated charcoal followed by centrifugation has also been described [Shanklin and Somerville (1991) Proc. Natl. Acad. Sci. USA 88, 2510-2514]. Based on these studies it is clear that near perfect separation is required for optimal assay performance. When applying this assay it is important to recognize that the apparent desaturation rate is impacted by isotope effects as described by Johnson and Gurr in 1971 [Johnson & Guhr (1971) Lipids 6, 78-84]. Thus whereas the assay serves as an excellent measure of relative SCD activity it must be calibrated using other methods when absolute measures of enzyme activity are needed. The pros and cons of this assay have also been summarized in the literature [Gurr & Robinson (1972) Anal. Biochem. 47, 146-156]. An abundant source of stearoyl-CoA desaturase activity can be found in microsomal preparations from the liver of rats that have been subjected to a fasting-refeeding procedure on a low fat/high carbohydrate diet [reviewed in Ntambi (1999) J. Lipid Res. 40, 1549-1558]. However, microsomal preparations are not a pure source of SCD activity and this means that the added stearoyl-CoA substrate is subject also to other enzymatic processes. It is therefore essential to include reagents that allow regeneration of the stearoyl-CoA substrate as described by Bertram and Erwin [Bertram & Erwin (1981) J. Protozool. 8, 127-131].
The tritium release assay for the measurement of SCD activity is thus well documented in the literature. Descriptions on how these finding have been used to produce standard screening assays in 96-well plates are also available [Brownlie, Hayden, Attie, Ntambi, Gray-Keller, & Miyazaki (2001) WO 01/62954; Wu, Gallipoli, Gallagher, & Gardell (2004) WO 2004/04776]. […]

In turn, `COCCNC(=O)c1cnn2c(C)c(Cc3ccccc3)c(C)nc12` [Example 1, 6-benzyl-N-(2-methoxyethyl)-5,7-dimethylpyrazolo[1,5-a]pyrimidine-3-carboxamide] had an IC50 of 1000 ± 400 nM.
`Cc1nc2c(C(=O)NCC3CCCO3)cnn2c(C)c1Cc1cccc(Br)c1` (stereo not shown) [6-(3-bromobenzyl)-5,7-dimethyl-N-(tetrahydrofuran-2-ylmethyl)pyrazolo[1,5-a]pyrimidine-3-carboxamide] registered an IC50 of 140 ± 67 nM.
`CCOCCCNC(=O)c1cnn2c(C)c(Cc3cccc(F)c3)c(C)nc12` [Example 24, N-(3-ethoxypropyl)-6-(3-fluorobenzyl)-5,7-dimethylpyrazolo[1,5-a]-pyrimidine-3-carboxamide] came in with a half-inhibitory concentration (IC50) of 700 ± 110 nM.
The compound `COc1cccc(Cc2c(C)nc3c(C(=O)NCCNC(C)=O)cnn3c2C)c1` [Example 8, N-[2-(Acetylamino)ethyl]-6-(3-methoxybenzyl)-5,7-dimethylpyrazolo-[1,5-a]pyrimidine-3-carboxamide] registered a half-inhibitory concentration (IC50) of 830 ± 240 nM.
